Experimental findings from PMC10245146, “CNS4 causes subtype‐specific changes in agonist efficacy and reversal potential of permeant cations in NMDA receptors” (Pharmacology Research & Perspectives, 2023) are described below.

Experiment [1] has as its system untransfected HEK293T cells. Briefly: Whole-cell patch-clamp on untransfected HEK293T cell. In kind it is cell-based, human. Particulars: 100 μM CNS4. The method, then:
Whole‐cell patch‐clamp electrophysiology studies were carried out in HEK‐293T cells expressing recombinant NMDA receptors that lack native functional NMDA receptors.[29], [30], [31] An equal quantity of (1 μg) cDNA for GluN1a, GluN2 subunits were co‐transfected 24‐48 h before patch‐clamp electrophysiology assay. […] Cells were carefully washed before performing experiments and were used for the electrophysiology experiments after 24 to 48 h incubation at 37°C with 5%CO2. The whole‐cell patch‐clamp electrophysiology assay was performed using semi‐automated patch‐clamp equipment, Port‐a‐Patch (Nanion Technologies GmbH). Following are the constituents of various solutions used for patch‐clamp electrophysiology: internal solution ([mM] NaCl 10, EGTA 20, CsF 110, HEPES 10), Mg‐free external (recording) solution ([mM] NaCl 140, KCl 4, CaCl2 2, HEPES 10, D‐GlucoseMonohydrate 5), and Mg‐free seal enhancer solution ([mM] NaCl 80, KCl 3, CaCl2 35, HEPES 10). Nanion NPC chips with […] resistance were used for the HEK‐293T cell recordings.
FIGURE 1 CNS4 sensitizes ambient concentration of agonists in GluN2 subunit dependent manner. […] Statistical significance was calculated from the Wilcoxon matched‐pairs signed rank test, except the comparison between 1/2A & 1/2AB CNS4 with no agonist data, which was done by unpaired t‐test. […]

Another experiment deals with T1, GluN1/2B NMDA receptors (Rattus norvegicus, UniProt P35439+Q00960).
T1 construct: SEP (super-ecliptic pHluorin; printed only as 'sep' in the plasmid name); host or cells: Xenopus oocytes (cRNA injection)
T1 sequence (Q00960 27-1482, other chains not shown): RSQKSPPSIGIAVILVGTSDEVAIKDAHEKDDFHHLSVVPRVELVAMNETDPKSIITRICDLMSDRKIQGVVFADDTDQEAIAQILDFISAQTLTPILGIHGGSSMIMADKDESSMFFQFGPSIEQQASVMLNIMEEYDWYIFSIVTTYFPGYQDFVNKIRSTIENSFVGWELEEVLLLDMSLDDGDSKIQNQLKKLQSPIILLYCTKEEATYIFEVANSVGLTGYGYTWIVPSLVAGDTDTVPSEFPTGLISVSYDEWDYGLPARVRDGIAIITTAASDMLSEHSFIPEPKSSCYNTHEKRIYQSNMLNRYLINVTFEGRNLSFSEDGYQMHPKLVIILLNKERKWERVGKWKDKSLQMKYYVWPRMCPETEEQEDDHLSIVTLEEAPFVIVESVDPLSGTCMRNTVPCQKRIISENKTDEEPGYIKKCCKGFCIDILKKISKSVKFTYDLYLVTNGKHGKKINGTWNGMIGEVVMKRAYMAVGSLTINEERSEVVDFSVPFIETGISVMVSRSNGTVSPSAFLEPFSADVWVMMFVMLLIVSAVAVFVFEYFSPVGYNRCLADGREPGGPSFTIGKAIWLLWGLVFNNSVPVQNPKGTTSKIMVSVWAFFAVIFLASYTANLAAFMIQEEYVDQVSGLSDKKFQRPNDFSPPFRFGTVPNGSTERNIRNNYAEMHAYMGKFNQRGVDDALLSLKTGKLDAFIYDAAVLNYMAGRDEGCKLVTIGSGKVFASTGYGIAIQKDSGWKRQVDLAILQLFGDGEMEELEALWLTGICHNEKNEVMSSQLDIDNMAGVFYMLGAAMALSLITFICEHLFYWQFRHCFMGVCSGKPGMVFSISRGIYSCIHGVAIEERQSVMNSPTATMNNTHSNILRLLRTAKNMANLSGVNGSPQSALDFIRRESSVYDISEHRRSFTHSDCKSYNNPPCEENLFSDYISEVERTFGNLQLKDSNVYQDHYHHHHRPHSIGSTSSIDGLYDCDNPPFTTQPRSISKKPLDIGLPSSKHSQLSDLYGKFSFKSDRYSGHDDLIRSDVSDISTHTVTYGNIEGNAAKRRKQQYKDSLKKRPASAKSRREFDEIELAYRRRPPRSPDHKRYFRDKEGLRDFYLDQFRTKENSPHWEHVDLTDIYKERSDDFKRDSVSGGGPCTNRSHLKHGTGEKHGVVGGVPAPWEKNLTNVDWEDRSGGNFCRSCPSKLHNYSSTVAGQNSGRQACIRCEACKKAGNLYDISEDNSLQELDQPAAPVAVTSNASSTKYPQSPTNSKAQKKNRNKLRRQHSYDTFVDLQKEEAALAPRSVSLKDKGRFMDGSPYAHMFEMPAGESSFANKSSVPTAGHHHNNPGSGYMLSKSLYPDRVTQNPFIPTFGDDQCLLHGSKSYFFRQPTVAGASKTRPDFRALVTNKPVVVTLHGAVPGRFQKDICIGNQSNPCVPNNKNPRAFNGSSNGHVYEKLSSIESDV
The experiment in a line: TEVC agonist dose-response, Xenopus oocytes expressing 1/2B. In kind it is cell-based. Particulars: with 30 μM CNS4. An excerpt:
NMDA receptor constructs: cDNA encoding the NMDA receptor1a subunit (GluN1a) was obtained from Dr. Nakanishi (Kyoto, Japan). cDNA encoding the GluN2B (pci_sepGluN2B), originally developed in the Malinow lab,[33] was purchased from Addgene (cat# 23998), Cambridge, MA. cDNA encoding the GluN2C and GluN2D were purchased from GenScript, New Jersey, USA. Mutated GluN1, 2A and 2B cDNA constructs capable of assembling as GluN1/2A/2B triheteromeric (1/2AB) receptors[34] were obtained from Dr. Paoletti (Laboratoire de Neurobiologie, CNRS). These constructs have been previously tested for 1/2AB receptor activity of GluN1/2A receptor‐selective potentiators.[35] […]
Electrophysiological responses were measured using a standard two‐microelectrode voltage‐clamp workstation (Warner Instruments model OC‐725C) designed to provide a fast clamp of large cells. […] Response magnitude was determined in Xenopus oocytes expressing different NMDA receptor subunits (GluN1/2A, 1/2B, 1/2C, 1/2D, and 1/2A/2B) by the steady plateau response elicited by bath application of different agonist concentrations. […] Statistical significance was determined at the overall alpha level 0.05, using appropriate statistical methods as described in all figure captions. […]

Turning to `O=C(NC(=S)N1CCCCC1c1cccnc1)c1ccc(F)cc1` (stereo not drawn) [CNS4], the Current response result in experiment [1] is “did not produce any measurable current response”. In addition, the “Glycine efficacy: relative fold change in current at highest glycine concentration” value at GluN1/2B NMDA receptors (100 μM glutamate constant, relative to 1 μM glycine, p = .0303) is 0.88 ± 0.07 fold. Besides, the “Glutamate efficacy: relative fold change in current at highest glutamate concentration” value at GluN1/2B NMDA receptors (100 μM glycine constant, relative to 1 μM glutamate, p = .5104) is given as 4.27 ± 0.82 fold.
